# From US5166198A, “Antiviral phosphonylalkoxy purines” (Beecham p.l.c., priority 1989, dated 1992)
# Tests used:
# Assay type in all cases: cell-based
# [1] = tested on: herpes simplex virus 2 (HSV-2; strain MS); assay: Plaque Reduction Test for Herpes Simplex Virus 2 (in MRC-5 cells); conditions: Human alphaherpesvirus 2, MRC5; MS strain in MRC-5 cells; read-out: IC50 Herpes Simplex virus Type 2
# Experimental: (§1) 1. Plaque Reduction Test for Herpes Simplex Viruses 1 and 2.
# (§2) Cells (Vero or MRC-5) were grown to confluence in 24 well multi-dishes (well diameter=1.5 cm). The drained cell monolayers were each infected with approximately 50 infectious particles of herpes simplex virus 1 (HSV-1; strain HFEM) or herpes simplex virus 2 (HSV-2; strain MS) in 100 μl of phosphate-buffered saline. The virus was adsorbed for 1 hour at room temperature. After adsorption, residual inoculum was removed from each well and replaced with 0.5 ml of Eagle's MEM containing 5% newborn calf serum and 0.9% agarose (A37). Once the agarose had set, dilutions of the test compound, which had been prepared in Eagle's MEM (containing 5% newborn calf serum), were added, each well receiving 0.5 ml of liquid overlay. The test compound was diluted to give the following series of concentrations: 200, 60, 20, 6 . . . 0.06 μg/ml; final concentrations in the assay ranged, therefore, between 100 μg/ml and 0.03 μg/ml. The infected cultures were incubated at 37° C. in a humidified atmosphere of 5% CO2 until plaques were clearly visible (2 or 3 days for Vero cells, usually 1 day for MRC-5 cells).
# (§3) Cultures from 1 and 2 were fixed in formal saline, the agarose overlays were carefully washed off, and then the cell monolayers were stained with carbol fuchsin. A stereo microscope was used to count plaques. The IC50 (concentration of drug which inhibits the number of plaques formed by 50% relative to the number of plaques observed in virus control monolayers) of the test compound was calculated. In addition, the monolayers were examined for evidence of drug-induced cytotoxicity; the minimum concentration at which cytotoxicity occurs was recorded.
# [2] = tested on: visna virus (strain K184); assay: CPE Inhibition Test (Established Monolayer) for Lentiviruses (in SCP cells); conditions: Visna-maedi virus, read-out: MIC Visna Virus (minimum concentration giving complete protection of the cell monolayers)
# Experimental: 3. CPE Inhibition Test (Established Monolayer) for Lentiviruses
# 3×10^4 sheep choroid plexus (SCP) cells were plated into individual wells of a 96 well microtitre plate in 100 μl of Eagle's MEM with Hanks' salts containing 10% heat inactivated foetal calf serum (FCS). When monolayers had become established (after 1 or 2 days growth) they were washed with 200 μl of maintenance medium (Eagle's MEM with Hanks' salts containing 0.5% FCS) and infected with 100 μl of visna virus (strain K184) in maintenance medium (30 TCID50 /ml). Test samples were diluted with maintenance medium in further 96 well microtitre plates over the range 200-0.06 μg/ml by 3-fold dilution steps. 100 μl of the diluted samples was then transferred directly onto virus-infected monolayers (final concentration range therefore […]) and incubated at in a humidified atmosphere containing 5% CO2 until virus-induced CPE was maximal in the untreated virus-infected controls (usually 12-14 days). The plates were fixed with formal saline and stained with crystal violet. Virus-induced CPE was then scored microscopically and the minimum concentration of sample giving complete protection of the cell monolayers (MIC) determined.
# [3] = tested on: herpes simplex virus 1 (HSV-1; strain HFEM); assay: Plaque Reduction Test for Herpes Simplex Virus 1 (in Vero cells); conditions: Human alphaherpesvirus 1, read-out: IC50 Herpes Simplex virus Type 1
# Experimental: as §1, §2, §3
# [4] = tested on: varicella zoster virus (VZV; Ellen strain); assay: Plaque Reduction Test for Varicella Zoster-Virus (in MRC-5 cells); conditions: Human alphaherpesvirus 3, MRC5; Ellen strain in MRC-5 cells
# Experimental: 2. Plaque Reduction Test for Varicella Zoster-Virus
# as §2, with “MRC-5 cells” for “Cells (Vero or MRC-5)”, “varicella zoster” for “herpes simplex”, “(VZV; Ellen strain)” for “1 (HSV-1; strain HFEM) or herpes simplex virus 2 (HSV-2; strain MS)”, “heat-inactivated foetal” for “newborn”, “(5” for “(2”, “6 days).” for “3 days for Vero cells, usually 1 day for MRC-5 cells).”
# as §3
Compound,IC50 [1],MIC [2],IC50 [3],IC50 [4]
"Nc1nc2c(ncn2OCCCP(=O)(O)O)c(=O)[nH]1 [Example 1, 9-(3-Phosphonopropoxy)guanine]",> 100 µg/mL,3 µg/mL,> 100 µg/mL,73 µg/mL
"Nc1nc2c(ncn2OCCCCP(=O)(O)O)c(=O)[nH]1 [Example 3, 9-(4-Phosphonobutoxy)guanine]",23 µg/mL,1 µg/mL,62 µg/mL,6 µg/mL
"Nc1nc(N)c2ncn(OCCCCP(=O)(O)O)c2n1 [Example 5, 2,6-Diamino-9-(4-phosphonobutoxy)purine]",> 100 µg/mL,10 µg/mL,> 100 µg/mL,17 µg/mL
"Nc1ncnc2c1ncn2OCCCCP(=O)(O)O [Example 7, 9-(4-Phosphonobutoxy)adenine]",> 100 µg/mL,100 µg/mL,> 100 µg/mL,> 100 µg/mL
Nc1ncnc2c1ncn2OC(CO)CCP(=O)(O)O (stereo not shown) [Example 11],> 100 µg/mL,30 µg/mL,> 100 µg/mL,> 100 µg/mL
"Nc1nc2c(ncn2OCC(O)CCP(=O)(O)O)c(=O)[nH]1 (stereo not shown) [Example 13, 9-(2-Hydroxy-4-phosphonobutoxy)guanine]",> 100 µg/mL,10 µg/mL,> 100 µg/mL,29 µg/mL
"Nc1ncnc2c1ncn2OCC(O)CCP(=O)(O)O (stereo not shown) [Example 15, 9-(2-Hydroxy-4-phosphonobutoxy)adenine]",> 100 µg/mL,100 µg/mL,> 100 µg/mL,> 100 µg/mL
"Nc1nc2c(ncn2OC(CO)CCP(=O)(O)O)c(=O)[nH]1 (stereo not shown) [Example 16, 9-[1-(Hydroxymethyl)-3-phosphonopropoxy]guanine]",> 100 µg/mL,100 µg/mL,> 100 µg/mL,> 100 µg/mL
"Nc1nc2c(ncn2OCC(CO)CCP(=O)(O)O)c(=O)[nH]1 (stereo not shown) [Example 18, 9-[2-(Hydroxymethyl)-4-phosphonobutoxy]guanine]",> 100 µg/mL,1 µg/mL,> 100 µg/mL,5 µg/mL
Nc1nc(N)c2ncn(OCC(CO)CCP(=O)(O)O)c2n1 (stereo not shown) [Example 20],> 100 µg/mL,10 µg/mL,> 100 µg/mL,17 µg/mL
